Measurements published in article PMC3513416 (Bioorganic & medicinal chemistry letters, 2009).

Target: T1, taspase1 (Homo sapiens, UniProt Q9H6P5)
T1 sequence (Q9H6P5 1-233 limits assumed): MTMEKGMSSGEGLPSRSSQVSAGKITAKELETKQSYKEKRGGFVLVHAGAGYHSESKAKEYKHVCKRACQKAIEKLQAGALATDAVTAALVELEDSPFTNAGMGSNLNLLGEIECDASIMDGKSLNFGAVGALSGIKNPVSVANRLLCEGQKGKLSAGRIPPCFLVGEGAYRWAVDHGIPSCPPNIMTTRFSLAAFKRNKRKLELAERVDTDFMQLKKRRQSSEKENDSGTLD
T1 sequence (Q9H6P5 234-420 limits assumed): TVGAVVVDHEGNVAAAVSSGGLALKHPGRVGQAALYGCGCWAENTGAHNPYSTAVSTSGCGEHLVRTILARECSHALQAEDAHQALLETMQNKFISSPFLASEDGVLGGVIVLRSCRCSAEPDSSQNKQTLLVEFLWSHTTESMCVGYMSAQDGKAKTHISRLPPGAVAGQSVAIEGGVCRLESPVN
Assay: Inhibition rates after different pre-incubation times
Type: biochemical
Settings: different amounts of pre-incubation time

- time dependence of inhibition: inhibition was not time dependent
Substance: Ac-Ile-Ser-Gln-Leu-Asp-vs [yzm18]
